Reference: patent US20070173545A1, “Activation of hypoxia-inducible gene expression” (priority 2003, published 2007)
“Also recorded” adds a separate entry of the source.

How the values were obtained:
HIF-1a protein = experiment: HIF-1a levels in nuclear extracts of U87 glioma cells (western blot); format: cell-based, human; settings: 150 μm DFO, four hours
Protocol: (A) U87 glioma cells cultured in DMEM were switched to Krebs buffer containing 5.5 mM glucose (Glc) and then evaluated for nuclear HIF-1a levels at various times by western blot analysis. (B) HIF-1a levels were measured after four hours incubation of cells in Krebs buffer containing the indicated glucose concentrations or with 5.5 mM 2-deoxyglucose (2-DG) substituted for glucose. (C) HIF-1a levels were measured in U87 cells cultured in glucose-free Krebs buffer following treatment for four hours under normoxia (21% oxygen) hypoxia (1% oxygen) or with 150 μm desferrioxamine (DFO). (D) Induction of HIF-1a by glucose was monitored in the presence of 50 μM IAA or 1 mM 4-CIN. […] Results are representative of experiments repeated at least three times.
Similar measurements were made in the presence of 50 μM IAA or in glucose-free Krebs buffer. […] HIF-1a induction by four hours treatment with 5.5 mM glucose-containing Krebs (Glc) is shown for comparison. (E) Digitonin-permeabilized cells were treated with 1% oxygen or Krebs containing either 5.5 mM glucose or 2 mM pyruvate in the presence of 50 μM IAA. Permeabilized cell in lanes 5 and 6 were treated with 3 mM NAD or NADH respectively in glucose free Krebs. Nuclear HIF-1a levels were determined four hours later. (F) HIF-1a levels were determined after four hour treatment of cells in glucose-free Krebs (lane 1) or 5.5 mM Glucose containing Krebs. […] (H) To measure the decay of the HIF-1a protein, HIF-1a measurements were made after four hour treatment under hypoxia (lane 1), four hours hypoxia followed by 30 minutes normoxia (lane 2), four hour treatment with 150 μM DFO (lane 3), four hours DFO followed by addition of 100 μM CHX for one hour (lane 4), four hours treatment with 2 mM pyruvate (lane 5), and four hours pyruvate followed by addition of 100 μM CHX for one hour (lane 6). (H) HIF-1a levels were determined in digitonin-permeabilized cells treated for four hour with Krebs containing no glucose (lane 1), 1 mM pyruvate (lane 2), or 1 mM pyruvate and 10 mM 2-OG (lane 3).
In order to resolve the biochemical mechanisms underlying this phenomenon, we studied the human glioma cell line U-87 under conditions of carefully defined culture media. Thus we studied these cells while culturing them in freshly prepared Krebs buffer, all components of which were known to us.
To precisely define the glucose metabolite mediating HIF-1a accumulation, we utilized pharmacological inhibitors of glycolysis as well as the direct addition of different glucose metabolites to cells (FIG. 4).

HRE containing promoter [1] = experiment: HRE-GFP reporter in U373 cells; format: cell-based, human; settings: eight hours, glucose-free medium
From the text: (§1) FIG. 18: 2-oxoacids activate HIF-mediated gene expression in human cell lines Effective gene expression by HIF not only involves HIF protein stabilization via inhibition of HPH enzymes but also HIF-1 binding to DNA, inhibition of FIH-1 activity, and gene transcription (see FIG. 1). (A) Glioma cells used in our studies express FIH-1 as assessed using RT-PCR. […] Expression of beta-actin, a housekeeping gene not under HIF regulation is not affected by pyruvate. […] (E) U373 cell were transfected with a green fluorescent protein (GFP) construct under the control of an HIF regulatory element (HRE) containing promoter and then cultured for eight hours in glucose-free medium under the indicated conditions. […] U251 cells stably transfected with a luciferase construct under the control of an HRE containing promoter were cultured for six hours in glucose free Krebs with the following conditions: 1=control, 2=1% oxygen, 3=pyruvate (2 mM), 4=OAA (2 mM), 5=Ethylpyruvate (2 mM), 6=Glucose (5.5 mM), 7=DMOG (0.5 mM), 8=Lactacystin-beta lactone ([…]).
Effective gene expression by HIF not only involves HIF protein stabilization via inhibition of HPH enzymes but also HIF-1 binding to DNA, inhibition of FIH-1 activity, and gene transcription. The human gliomas that we utilized for most of our studies all express mRNA for FIH-1 (FIG. 18A). […]

HRE containing promoter [2] = experiment: HRE-luciferase reporter in U251 cells; format: cell-based, human; settings: six hours, glucose free Krebs, pyruvate, OAA, Ethylpyruvate 2 mM, Lactacystin-beta lactone 20 mM
From the text: as §1
FIG. 19: HIF-mediated gene expression is selectively reversed by ascorbate U251 cells stably expressing HRE-luciferase were cultured in glucose-free Krebs buffer with the indicated conditions for eight hours. Pyruvate, oxaloacetate, and DMOG were added at 1 mM each.
Effective gene expression by HIF not only involves HIF protein stabilization via inhibition of HPH enzymes but also HIF-1 binding to DNA, inhibition of FIH-1 activity, and gene transcription. The human gliomas that we utilized for most of our studies all express mRNA for FIH-1 (FIG. 18A). […] To directly assess activation of gene containing an HRE regulated promoter by the glucose metabolites pyruvate and oxaloacetate, we used U373 glioma cells transfected with an HRE-green fluorescent (HRE-GFP) construct that responds to HIF activation.

HIF-1a = HIF-1a induction in digitonin-permeabilized human glioma cells (U87, U251); format: cell-based; settings: 1 mM doses
Protocol: We determined the ability of each shown structure to induce HIF by exposing digitonin-permeabilized human glioma cells (U87, U251) to 1 mM doses.
At four hours, ATP levels were measured in cell extracts using the luciferase method.
In order to investigate the mechanism of action of the 2-oxoacid HIF inducers that we identified we first determined their effects upon cellular ATP levels. […] As shown in the scheme in FIG. 1, cellular levels of HIF-1a can be elevated by blockade of proteasomal activity, ubiquitinylation, or prolyl hydroxylation. Inhibition of the proteasome by lactacystin beta-lactone (Lbl) leads to accumulation of HIF-1a in its polyubiquitinylated form which generally appears as a smear of higher molecular weight species on western blots. […] Cellular accumulation and nuclear translocation of HIF-1a can also be studied via immunohistochemistry. For this purpose we utilized U251 cells which are more adherent to cell culture dishes that the U87 cells.

[3] = system: HPH homologues 1, 2 and 3; experiment: ^35S-pVHL pulldown assay, in vitro translated HPH homologues; format: biochemical, human; settings: 2-OG analogs at 1 mM, 5 mM or 25 mM [2-OG], ascorbate at 2 mM
Protocol: After incubating the peptide with the HPHs and the indicated reagents, ^35S-pVHL was added followed by addition of streptavidin-coated beads to pull down the HIF-1a peptide. The reaction was pelleted, the pellet was washed and then solubilized for SDS-PAGE analysis followed by autoradiography to reveal the captured ^35S-pVHL. Using in vitro translated HPH homologues we first optimized assay conditions with respect to the required HPH substrates and co-factors. […] Conditions for other reagents were: ascorbate=2 mM, iron sulfate=250 μM, DTT=1 mM. […] Conditions: ascorbate=2 mM, 2-OG=2 mM, DTT=1 mM. […] Conditions: 2-OG=125 μM, iron sulfate=250 μM, DTT=1 mM. […] In all assays 5 μl (about 20 ng) of enzyme and 1 μg of peptide was utilized.
FIG. 13: In vitro effects of 2-OG analogs on recombinant HPH activity HPH activity was assessed via the ^35S-pVHL pulldown assay as in FIG. 11. Activity of in vitro translated HPH homologues was determined in the absence and presence of the 2-OG analogs N-oxalylglycine (NOG), pyruvate or OAA at 1 mM.
To directly evaluate the action of pyruvate and oxaloacetate on HPH activity (step D in FIG. 2) we utilized the commonly used ^35S-pVHL pulldown assay. This assay monitors the ability of HPH homologues to confer ^35S-pVHL binding activity onto a biotinylated 19mer peptide containing the key proline564 residue of the HIF-1a ODD (see FIG. 1). […]

CC(=O)N(O)CCCCCNC(=O)CCC(=O)N(O)CCCCCNC(=O)CCC(=O)N(O)CCCCCN [DFO, desferrioxamine]
HIF-1a levels in glucose-free Krebs buffer (HIF-1a protein): still upregulate HIF-1a protein in the absence of glucose
HRE-GFP expression (HRE containing promoter [1]): activated HRE-GFP expression; also recorded: GFP (green fluorescence) was expressed
HRE-luciferase expression (HRE containing promoter [2]): enhanced HRE-luciferase expression

O=C(O)CNC(=O)C(=O)O [NOG, N-oxalylglycine]
Ability to induce HIF (HIF-1a accumulation), structure-activity (HIF-1a): consistently enhanced HIF-1a levels
Inhibition of 2-OG catalyzed HPH activity [3]: inhibition by NOG is clearly evident
